Data on one substance can be found in patent US20050084456A1, “Functionalized particles” (priority 2003, published 2005).

The nature of this series: Distribution of intravenously administered FITC-labeled NIPA nanoparticles in uveal tissue. Particulars: 12 hours after intravenous administration; FIG. 3.

Turning to fluorescein-isothiocyanate [FITC], the “presence / accumulation in uveal tissue” value is listed as “no accumulation”.
